# “Also recorded” adds a separate entry of the source. Like-named read-outs stand apart in the source and are kept apart here.
# How the values were obtained:
# [1] = Cytotoxicity in mock-infected HEL cells (MTS); assay type: cell-based, human; conditions: human; mock-infected HEL cells, MTS, mean of 2–3 tests
# [2] = target: T1, human recombinant cathepsin L (Homo sapiens, UniProt P07711); assay: biochemical; assay type: biochemical
# T1 construct: made in house; host or cells: Escherichia coli
# Procedure: Cathepsin L inhibition was assessed as reported. Briefly, human recombinant cathepsin L was expressed in Escherichia coli[33]. Enzymatic activity was determined in 100 mM acetate buffer (pH 5.5) containing 0.1% PEG 8000, 5 mM cysteine and 1.5 mM EDTA. The enzyme was first activated in assay buffer for 5 min at 37 °C, after which it was added to the wells of a black microplate containing the Z-Phe-Arg-AMC substrate (Bachem) and compounds. Formation of the fluorescent cleavage product was monitored for 50 min at 37 °C, using a Tecan Infinit M1000 spectrofluorimeter set at 460 nm emission and 380 nm excitation wavelength. All assay mixtures contained 5% (v/v) DMSO and 0.01% Triton X-100 to prevent false-positive inhibition due to formation of compound aggregates. All measurements were performed in triplicate and repeated twice. The relative inhibition was calculated using the equation: Relative inhibition (%) = 100(1 − vi/vo), where vi and vo designate the reaction velocities in the presence and absence of inhibitor, respectively. IC50 values were determined from nine data points at different inhibitor concentrations.
# VeroE6 cells = assay: Cytotoxicity in mock-infected VeroE6 cells (XTT); assay type: cell-based, African green monkey
# [3] = Cytotoxicity in mock-infected VeroE6 cells (XTT); assay type: cell-based, African green monkey; conditions: African green monkey; mock-infected Vero E6 cells, three days, XTT
# SARS-CoV-2 [4] = assay: microbe, parasite or virus in culture; assay type: cell-based; conditions: for EC50: Vero E6 cells, three days, XTT, read-out: EC50, CPE reduction, SARS-CoV-2 in Vero E6 cells
# HCoV-229E = assay: CPE reduction assay, HCoV-229E in HEL cells; assay type: cell-based; conditions: for EC50: MTS, mean of 2–3 tests
# SARS-CoV-2 pseudovirus [5] = assay: microbe, parasite or virus in culture; assay type: cell-based; conditions: for Inhibition of pseudovirus entry in A549-AT cells (in words): TMPRSS2-mediated uptake; for EC50: A549-AT cells (ACE2 and TMPRSS2), luciferase signal, mean ± SEM of 3 tests, read-out: EC50, inhibition of SARS-CoV-2 pseudovirus entry in A549-AT cells
# SARS-CoV-2 pseudovirus [6] = assay: microbe, parasite or virus in culture; assay type: cell-based; conditions: for EC50: Vero cells, luciferase signal, mean ± SEM of 3 tests, read-out: EC50, inhibition of SARS-CoV-2 pseudovirus entry in Vero cells; for Inhibition of pseudovirus entry in Vero cells (in words): cathepsin-dependent endosomal pathway
# SARS-CoV-2 3CL^Pro = SARS-CoV-2 3CL^Pro (Severe acute respiratory syndrome coronavirus 2, UniProt P0DTD1); assay: biochemical; assay type: biochemical
# SARS-CoV-2 [7] = assay: microbe, parasite or virus in culture; assay type: cell-based; conditions: for EC50: Calu-3 cells, three days, XTT, read-out: EC50, CPE reduction, SARS-CoV-2 in Calu-3 cells
# in vitro = conditions: human
# HEL cells = assay: Cytotoxicity in mock-infected HEL cells (MTS); assay type: cell-based, human; conditions: mock-infected HEL cells, MTS, mean of 2–3 tests
# Calu-3 cells = assay: Cytotoxicity in mock-infected Calu-3 cells (XTT); conditions: read-out: CC50, Calu-3 cells, three days
# [8] = system: Klebsiella pneumoniae ST258 clone K 160/09; assay: MIC against Gram-negative strain; conditions: Klebsiella pneumoniae ST258 clone K 160/09
# S.pyogenes = assay: MIC, broth microdilution; assay type: cell-based
# S. aureus = assay: MIC, broth microdilution; assay type: cell-based
# S. haemolyticus = assay: MIC, broth microdilution; assay type: cell-based
# E. faecalis = assay: MIC, broth microdilution; assay type: cell-based
# [9] = system: Acinetobacter baumannii ATCC BAA1605; assay: MIC against Gram-negative strain; conditions: Acinetobacter baumannii ATCC BAA1605
# [10] = system: Escherichia coli ATCC 25218; assay: MIC against Gram-negative strain; conditions: ATCC25218
# [11] = system: Pseudomonas aeruginosa ATCC 27853; assay: MIC against Gram-negative strain; conditions: ATCC27853
# S. epidermidis = assay: microbe, parasite or virus in culture; assay type: cell-based
# E. faecium = assay: microbe, parasite or virus in culture; assay type: cell-based
# [12] = Severe acute respiratory syndrome-related coronavirus
# T1 sequence (P07711 114-333): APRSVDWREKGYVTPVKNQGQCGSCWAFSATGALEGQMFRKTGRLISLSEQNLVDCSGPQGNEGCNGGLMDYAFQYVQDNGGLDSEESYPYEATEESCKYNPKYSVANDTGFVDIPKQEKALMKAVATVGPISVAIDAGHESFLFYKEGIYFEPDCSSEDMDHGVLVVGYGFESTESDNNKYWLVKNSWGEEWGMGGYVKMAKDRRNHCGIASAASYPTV
molecule,measurement,setting,value
O=C(O)CCC(F)(F)C(F)(F)C(F)(F)C(F)(F)C(F)(F)C(F)(F)C(F)(F)C(F)(F)F [Compound 14],CC50,[1],> 100 µM
same,IC50,"[2]; pH 5.5, Z-Phe-Arg-AMC substrate, read-out: Cathepsin L IC50",> 500 µM
same,Toxicity in VeroE6 cells (in words),VeroE6 cells; VeroE6 cells,quite toxic
same,CC50,[3],39 ± 1.4 µM
same,EC50,"SARS-CoV-2 [4]; Severe acute respiratory syndrome coronavirus 2, Vero C1008, 72 h",19 ± 1.5 µM
same,Reduction of the CPE of SARS-CoV-2 in VeroE6 cells (in words),SARS-CoV-2 [4]; VeroE6 cells,did show antiviral activity
same,EC50,HCoV-229E; Human coronavirus 229E,69 µM
same,Inhibition of pseudovirus entry in A549-AT cells (in words),SARS-CoV-2 pseudovirus [5],inhibited both entry routes
same,EC50,SARS-CoV-2 pseudovirus [5]; [12],24 ± 6 µM
same,EC50,SARS-CoV-2 pseudovirus [6]; [12],13 ± 5 µM
same,Inhibition of pseudovirus entry in Vero cells (in words),SARS-CoV-2 pseudovirus [6],inhibited both entry routes
same,inhibition at 200 µM,SARS-CoV-2 3CL^Pro,12 ± 2%
same,Activity against SARS-CoV-2 in Calu-3 cells (in words),SARS-CoV-2 [7],active
same,EC50,"SARS-CoV-2 [7]; Severe acute respiratory syndrome coronavirus 2, 72 h",46 ± 1.9 µM
same,CC50,in vitro,~53 µM
teicoplanin [reference compound],CC50,HEL cells,> 100 µM
same,CC50,Calu-3 cells,> 100 µM
same,Cathepsin L inhibition (in words),[2],inactive
same,Cathepsin L inhibition at 50 µM,[2]; at 50 µM,5% at 50 µM
same,MIC,[8],256 µg/mL
same,CC50,"VeroE6 cells; mock-infected Vero E6 cells, three days, XTT",> 100 µM
same,EC50,SARS-CoV-2 [4],16 ± 1.7 µM
same,MIC value,S.pyogenes; S.pyogenes H232,"0,03125 µg/ml"
same,MIC value,S.pyogenes; S.pyogenes H550,"0,25 µg/ml"
same,MIC value,S.pyogenes; S.pyogenes H578,"0,25 µg/ml"
same,MIC value,"S. aureus; S. aureus 73OL, MRSA","0,5 µg/ml"
same,MIC value,"S. aureus; S. aureus 214OL, MRSA",2 µg/mL
same,MIC value,"S. aureus; S. aureus 1041OL, MRSA",1 µg/mL
same,MIC value,"S. aureus; S. aureus A6918, MRSA",1 µg/mL
same,MIC value,"S. aureus; S. aureus A6919, MRSA","0,5 µg/ml"
same,MIC value,"S. aureus; S. aureus ATCC29213, MSSA","0,5 µg/ml"
same,Average MIC value,"S. aureus; S. aureus CA-MRSA, 1 strain",0.125 µg/mL
same,Average MIC value,"S. aureus; S. aureus MRSA, 7 strains",1.43 µg/mL
same,MIC value,"S. aureus; S. aureus MSSA476, MSSA","0,25 µg/ml"
same,Average MIC value,"S. aureus; S. aureus MSSA, 4 strains",0.375 µg/mL
same,MIC value,"S. aureus; S. aureus Mu50, MRSA",4 µg/mL
same,MIC value,"S. aureus; S. aureus N315, MRSA",1 µg/mL
same,MIC value,"S. aureus; S. aureus Newman, MSSA","0,25 µg/ml"
same,MIC value,"S. aureus; S. aureus SA564, MSSA","0,5 µg/ml"
same,MIC value,"S. aureus; S. aureus USA300, CA-MRSA","0,125 µg/ml"
same,Average MIC value,"S. haemolyticus; S. haemolyticus mecA, 6 strains",112 µg/mL
same,MIC value,"S. haemolyticus; S.haemolyticus DALB_R1, mecA",128 µg/mL
same,MIC value,"S. haemolyticus; S.haemolyticus DALB_R2, mecA",256 µg/mL
same,MIC value,"S. haemolyticus; S.haemolyticus DALB_R3, mecA",32 µg/mL
same,MIC value,"S. haemolyticus; S.haemolyticus DALB_R4, mecA",64 µg/mL
same,MIC value,"S. haemolyticus; S.haemolyticus DALB_R5, mecA",128 µg/mL
same,MIC value,"S. haemolyticus; S.haemolyticus ORI_R1, mecA",64 µg/mL
same,Average MIC value,"E. faecalis; E. faecalis VAN^R,TEI^R/VanA, 1 strain",> 64 µg/mL
same,Average MIC value,"E. faecalis; E. faecalis VAN^S, TEI^S, 2 strains",0.25 µg/mL
same,MIC value,E. faecalis; E.faecalis JH2-2,"0,25 µg/ml"
same,MIC value,E. faecalis; E.faecalis OG1RF,"0,25 µg/ml"
same,MIC value,"E. faecalis; E.faecalis V583, VAN,TEI/VanA",>64 µg/mL
same,Activity against HCoV-229E CPE (in words),HCoV-229E,inactive
same,EC50,HCoV-229E,> 100 µM
same,MIC,[9],128 µg/mL
same,MIC,[10],256 µg/mL
same,EC50,SARS-CoV-2 pseudovirus [5],> 125 µM
same,Inhibition of pseudovirus entry in A549-AT cells (in words),SARS-CoV-2 pseudovirus [5],inactive
same,EC50,SARS-CoV-2 pseudovirus [6],21 ± 5 µM
same,Inhibition of pseudovirus entry in Vero cells (in words),SARS-CoV-2 pseudovirus [6],moderately active
same,3CL^Pro % inhibition at 200 µM,SARS-CoV-2 3CL^Pro; at 200 µM,13 ± 8%
same,Activity against SARS-CoV-2 in Calu-3 cells (in words),SARS-CoV-2 [7],inactive; also recorded: does not inhibit
same,EC50,SARS-CoV-2 [7],> 100 µM
same,MIC,[11],256 µg/mL
same,Average MIC value,"S. epidermidis; S. epidermidis mecA, 6 strains",26.7 µg/mL
same,MIC value,"S. epidermidis; S.epidermidis ORI_R1, mecA",32 µg/mL
same,MIC value,"S. epidermidis; S.epidermidis ORI_R2, mecA",16 µg/mL
same,MIC value,"S. epidermidis; S.epidermidis ORI_R3, mecA",32 µg/mL
same,MIC value,"S. epidermidis; S.epidermidis ORI_R4, mecA",16 µg/mL
same,MIC value,"S. epidermidis; S.epidermidis TEI_R1, mecA",32 µg/mL
same,MIC value,"S. epidermidis; S.epidermidis TEI_R2, mecA",32 µg/mL
same,Average MIC value,"E. faecium; E. faecium VAN^R,TEI^R/VanA, 8 strains",> 64 µg/mL
same,Average MIC value,"E. faecium; E. faecium VAN^S, TEI^S, 1 strain",0.5 µg/mL
same,MIC value,"E. faecium; E.faecium E335, VAN,TEI,LNZ/VanA",>64 µg/mL
same,MIC value,"E. faecium; E.faecium E355, VAN,TEI,LNZ/VanA",>64 µg/mL
same,MIC value,"E. faecium; E.faecium E832, VAN,TEI,LNZ/VanA",>64 µg/mL
same,MIC value,"E. faecium; E.faecium E854, VAN,TEI,LNZ/VanA",>64 µg/mL
same,MIC value,"E. faecium; E.faecium E859, VAN,TEI,LNZ/VanA",>64 µg/mL
same,MIC value,"E. faecium; E.faecium E1114, VAN,TEI,LNZ/VanA",>64 µg/mL
same,MIC value,"E. faecium; E.faecium E1131, VAN,TEI,LNZ/VanA",>64 µg/mL
same,MIC value,"E. faecium; E.faecium E1132, VAN,TEI,LNZ/VanA",>64 µg/mL
same,MIC value,E. faecium; E.faecium TX0016,"0,5 µg/ml"

# From publication PMC9511441, “Semisynthetic teicoplanin derivatives with dual antimicrobial activity against SARS-CoV-2 and multiresistant bacteria” (Scientific Reports, 2022)
